Reference: patent US20230183640A1, “METABOLIC INHIBITORS WITH EFFICACY FOR INHIBITING SULFIDE PRODUCTION IN HARSH ENVIRONMENTS” (MC (US) 3 LLC, priority 2020, published 2023)

Columns and labels:
[1] = tested on: Desulfovibrio alaskensis 14563; assay: H2S and Log (Growth) efficacy against SRB, 96-Well Plate Method; type: cell-based; settings: Table 6 run
Description: A lyophilized Desulfovibrio alaskensis 14563, Desulfovibrio longus 51456, and Desulfovibrio gabonensis 700201 pure cultures received from ATCC were resuspended individually in 500 ul of MB 1250. Aseptically, the content was transferred to a 5-mL tube of MB1250 medium. The cultures were incubated in an anaerobic chamber at 30° C. for 72 hrs. Subsequently, an individual stock culture with a final concentration of 25% glycerol were prepared by adding equal volumes of culture and 50% glycerol. 1 ml of the cultures were then transferred to 2-ml cryogenic vials and stored at −80° C. The purity of the stock cultures was evaluated through PCR, by amplifying the 16S rDNA region, and thus, it was verified that the original ATCC sample was a pure culture. 48-hour cultures of ATCC Desulfovibrio alaskensis 14563, Desulfovibrio longus 51456, and Desulfovibrio gabonensis 700201 were prepared in an anaerobic chamber. Each culture was prepared as a 1:10 culture by taking 1 milliliter (mL) of a pure culture and inoculating 9 milliliters (mL) of fresh MB1250 media. The Desulfovibrio alaskensis 14563 and Desulfovibrio gabonensis 700201 were all grown at 30° C. and the Desulfovibrio longus 51456 culture was grown at 35° C.
After the 48-hour incubation, 600 microliters (μL) were taken from each culture and optical density (OD) was measured using a Thermofisher Spectronic 200 Spectrophotometer at 600 nm. Each culture was diluted to 0.05 OD600 in fresh MB1250 media and added to the 96 well plates. Edge wells were not used due to their inherent variability and evaporation of the media. Each of the components were added at their respective concentrations for a final volume of 500 μL per well. In Table 3, 6 and 7, the concentrations of the compound used for the experiments are listed. Each experiment was done with at least three replicates for different treatments and non-treatment controls. […] Plates were then sealed with a titer-top and placed into anaerobic boxes and incubated in an anaerobic incubator at 30° C.
At each time point, sulfide samples were taken, and enumeration plates were made. Enumeration plates were made to determine the log growth in each dosed sample. For this process, enumeration plates were prepared by adding 180 μL fresh media MB1250 containing 0.01 wt % ferrous ammonium sulfate. 20 μL was taken from each well of the challenge plates and transferred to the enumeration plates using a 20-200 μL multichannel pipette. Enumeration plates were mixed three times using the multichannel pipette and serial diluted down the plate tenfold (20 μL into 180 μL). This serial dilution process was repeated for all challenge plate rows giving a total of 6 enumeration plates.
After 7 days these enumeration plates were read. The ferrous ammonium sulfate in each plate would be converted to iron sulfide, changing wells with SRB growth from clear to black. By counting the number of black wells in a row, the log growth from the original well in the challenge plate can be determined.
To determine hydrogen sulfide production in each sample, sulfide samples were also taken from each challenge plate. From each well, 9 μL were taken and added to 60 μL of 2% zinc acetate with 0.02% acetic acid. Then, 180 μL of milliQ water was added. 60 μL of stock solution 1 containing 64% sulfuric acid, <1% Dimethyl-4-phenylenediamine (DMPD), water to 100% was added to each well on the plates. This was followed by 3 μL of stock solution 3 containing 50% Iron (III) chloride. All chemicals are ordered from Fisher Scientific and used as received. These were mixed three times and read after 15 minutes. The plates were read at 670 nm using a Biotek microplate reader. Absorbance readings were converted to mM using a standard curve and this was converted to parts per million using the molar mass of sulfur. The standard curves were made using sodium sulfide nonahydrate solutions to give final solutions of 0, 0.125, 0.25 0.5, 1.0, and 1.5 ppm.

[2] = tested on: sulfate reducing bacteria; assay: Efficacy in inhibiting H2S production from sulfate reducing bacteria; type: cell-based; settings: Tables 6 and 7
Description: To understand the hydrogen sulfide inhibition efficacy of the N-hydroxycarboxamide compounds of the present invention, several compounds were tested. Some compounds that can be used in this H2S inhibiting composition are disclosed in Table 2. For the testing procedures, the compounds were dissolved in DMSO, resulting in a stock solution of about 8000-100000 ppm, which was subsequently diluted in 96-well plates or 10 mL serum vials containing media and selected culture to give varying concentrations from 0.09 to 1000 ppm of the compounds in final solution for efficacy testing.
Strains of commonly found bacteria were used for testing the efficacy of the compounds, viz. Desulfovibrio alaskensis, Desulfovibrio longus and Desulfovibrio gabonensis. Media for the cultures was also prepared by using a standard method. The cultures were aseptically used and incubated under anaerobic conditions. Two well established methods were used for testing various compounds:
The compounds C1, C12, C14, C15 and C16 were tested individually to understand each of their efficacies in inhibiting the H2S production from sulfate reducing bacteria, under standard temperature and pressure conditions. The efficacy of compounds C14 and C15 against hydrogen sulfide production are disclosed in Example 1, Tables 6 and 7.

O=C(NO)c1ccccc1 [C15]
H2S ([1]; 2 days, 7.615 PPM): 103.6 PPM
Log (Growth) ([1]; 2 days, 7.615 PPM): 7.7
H2S ([1]; 2 days, 15.75 PPM): 54.7 PPM
Log (Growth) ([1]; 2 days, 15.75 PPM): 7.7
H2S ([1]; 2 days, 31.25 PPM): 54.4 PPM
Log (Growth) ([1]; 2 days, 31.25 PPM): 7.0
H2S ([1]; 2 days, 125 PPM): 130.2 PPM
Log (Growth) ([1]; 2 days, 125 PPM): 7.3
H2S ([1]; 2 days, 500 PPM): 155.7 PPM
Log (Growth) ([1]; 2 days, 500 PPM): 7.3
H2S ([1]; 2 days, 1000 PPM): 130.7 PPM
Log (Growth) ([1]; 2 days, 1000 PPM): 8.0
H2S ([1]; 5 days, 7.615 PPM): 35.2 PPM
Log (Growth) ([1]; 5 days, 7.615 PPM): 8.0
H2S ([1]; 5 days, 15.75 PPM): 42.7 PPM
Log (Growth) ([1]; 5 days, 15.75 PPM): 7.3
H2S ([1]; 5 days, 31.25 PPM): 26.3 PPM
Log (Growth) ([1]; 5 days, 31.25 PPM): 7.7
H2S ([1]; 5 days, 125 PPM): 55.5 PPM
Log (Growth) ([1]; 5 days, 125 PPM): 7.0
H2S ([1]; 5 days, 500 PPM): 31.8 PPM
Log (Growth) ([1]; 5 days, 500 PPM): 7.0
H2S ([1]; 5 days, 1000 PPM): 73.3 PPM
Log (Growth) ([1]; 5 days, 1000 PPM): 8.0
activity in reducing H2S production [2]: did not show significant activity

O=C(CCCCCCC(=O)NO)NO [C14]
H2S ([1]; 2 days, 7.615 PPM): 71.3 PPM
Log (Growth) ([1]; 2 days, 7.615 PPM): 7.0
H2S ([1]; 2 days, 15.75 PPM): 56.4 PPM
Log (Growth) ([1]; 2 days, 15.75 PPM): 8.0
H2S ([1]; 2 days, 31.25 PPM): 56.3 PPM
Log (Growth) ([1]; 2 days, 31.25 PPM): 7.3
H2S ([1]; 2 days, 125 PPM): 131.9 PPM
Log (Growth) ([1]; 2 days, 125 PPM): 8.0
H2S ([1]; 2 days, 500 PPM): 54.6 PPM
Log (Growth) ([1]; 2 days, 500 PPM): 7.7
H2S ([1]; 2 days, 1000 PPM): 117.5 PPM
Log (Growth) ([1]; 2 days, 1000 PPM): 7.7
H2S ([1]; 5 days, 7.615 PPM): 45.6 PPM
Log (Growth) ([1]; 5 days, 7.615 PPM): 7.3
H2S ([1]; 5 days, 15.75 PPM): 34.7 PPM
Log (Growth) ([1]; 5 days, 15.75 PPM): 7.3
H2S ([1]; 5 days, 31.25 PPM): 29.0 PPM
Log (Growth) ([1]; 5 days, 31.25 PPM): 7.3
H2S ([1]; 5 days, 125 PPM): 45.0 PPM
Log (Growth) ([1]; 5 days, 125 PPM): 7.3
H2S ([1]; 5 days, 500 PPM): 42.2 PPM
Log (Growth) ([1]; 5 days, 500 PPM): 7.0
H2S ([1]; 5 days, 1000 PPM): 38.6 PPM
Log (Growth) ([1]; 5 days, 1000 PPM): 8.0
activity in reducing H2S production [2]: did not show significant activity
